# Data reported in patent US20040038233A1, “Diagnosis kit for mycobacterium species indentification and drug-resistance detection and manufacturing method thereof” (priority 2000, published 2004).
# How the values were obtained:
# [1] = tested on: Mycobacterium tuberculosis; type: cell-based
# [2] = tested on: strains having mutations of 511 (Leu>Pro), 516 (Asp>Tyr), 516 (Asp>Val), and 522 (Ser>Leu); conditions: strains with mutations 511 (Leu>Pro); cited from earlier work
smiles,measurement,setting,value
"CO[C@H]1/C=C/O[C@@]2(C)Oc3c(C)c(O)c4c(c3C2=O)C2=NC3(CCN(CC(C)C)CC3)NC2=C(NC(=O)/C(C)=C\C=C\[C@H](C)[C@H](O)[C@@H](C)[C@@H](O)[C@@H](C)[C@H](OC(C)=O)[C@@H]1C)C4=O [rifabutin, Rifabutin]",drug-susceptibility test result,[1],resistance
same,resistance classification,[2],low-level resistance
same,rifabutin MIC,[2],≤ 5 µg/mL
